pIC50: −log10 of the molar value. Calls of active or inactive are those of the source. No cut-off for these calls is given here.
Experiments:
[1] = test system: MCF7; assay: Cytotoxicity against human MCF7 cells assessed as inhibition of cell proliferation after 3 days by MTT assay; type: functional, cell-based; conditions: MCF7, 72 h
[2] = test system: PC-3; assay: Cytotoxicity against human PC3 cells assessed as inhibition of cell proliferation after 3 days by MTT assay; type: functional, cell-based
[3] = target: Vascular endothelial growth factor receptor 2 (Homo sapiens, UniProt P35968); assay: Inhibition of VEGFR2 in human MCF7 cells by horseradish peroxidase-coupled TMB substrate based ELISA; type: cell-based
[4] = test system: MCF7; assay: Induction of apoptosis in human MCF7 cells assessed as necrotic cells at after 48 hrs by Annexin V-FITC/propidium iodide staining based flow cytometric analysis (reference value: 0.41 %); type: functional
[5] = test system: MCF7; assay: Cell cycle arrest in human MCF7 cells assessed as accumulation at G2/M phase after 48 hrs by propidium iodide/RNase A staining based flow cytometry analysis; type: functional
[6] = test system: MCF7; assay: Cell cycle arrest in human MCF7 cells assessed as induction of preG1 apoptosis after 48 hrs by propidium iodide/RNase A staining based flow cytometry analysis; type: functional
[7] = test system: MCF7; assay: Induction of apoptosis in human MCF7 cells assessed as late apoptotic cells after 48 hrs by Annexin V-FITC/propidium iodide staining based flow cytometric analysis (reference value: 0.3 %); type: functional
[8] = test system: MCF7; assay: Induction of apoptosis in human MCF7 cells assessed as up regulation of caspase 9 expression by measuring caspase 9 level by ELISA (reference value: 1.223 ng/ml); type: functional
[9] = test system: MCF7; assay: Induction of apoptosis in human MCF7 cells assessed as early apoptotic cells after 48 hrs by Annexin V-FITC/propidium iodide staining based flow cytometric analysis (reference value: 1.56 %); type: functional

Chain of Vascular endothelial growth factor receptor 2 (P35968 whole entry): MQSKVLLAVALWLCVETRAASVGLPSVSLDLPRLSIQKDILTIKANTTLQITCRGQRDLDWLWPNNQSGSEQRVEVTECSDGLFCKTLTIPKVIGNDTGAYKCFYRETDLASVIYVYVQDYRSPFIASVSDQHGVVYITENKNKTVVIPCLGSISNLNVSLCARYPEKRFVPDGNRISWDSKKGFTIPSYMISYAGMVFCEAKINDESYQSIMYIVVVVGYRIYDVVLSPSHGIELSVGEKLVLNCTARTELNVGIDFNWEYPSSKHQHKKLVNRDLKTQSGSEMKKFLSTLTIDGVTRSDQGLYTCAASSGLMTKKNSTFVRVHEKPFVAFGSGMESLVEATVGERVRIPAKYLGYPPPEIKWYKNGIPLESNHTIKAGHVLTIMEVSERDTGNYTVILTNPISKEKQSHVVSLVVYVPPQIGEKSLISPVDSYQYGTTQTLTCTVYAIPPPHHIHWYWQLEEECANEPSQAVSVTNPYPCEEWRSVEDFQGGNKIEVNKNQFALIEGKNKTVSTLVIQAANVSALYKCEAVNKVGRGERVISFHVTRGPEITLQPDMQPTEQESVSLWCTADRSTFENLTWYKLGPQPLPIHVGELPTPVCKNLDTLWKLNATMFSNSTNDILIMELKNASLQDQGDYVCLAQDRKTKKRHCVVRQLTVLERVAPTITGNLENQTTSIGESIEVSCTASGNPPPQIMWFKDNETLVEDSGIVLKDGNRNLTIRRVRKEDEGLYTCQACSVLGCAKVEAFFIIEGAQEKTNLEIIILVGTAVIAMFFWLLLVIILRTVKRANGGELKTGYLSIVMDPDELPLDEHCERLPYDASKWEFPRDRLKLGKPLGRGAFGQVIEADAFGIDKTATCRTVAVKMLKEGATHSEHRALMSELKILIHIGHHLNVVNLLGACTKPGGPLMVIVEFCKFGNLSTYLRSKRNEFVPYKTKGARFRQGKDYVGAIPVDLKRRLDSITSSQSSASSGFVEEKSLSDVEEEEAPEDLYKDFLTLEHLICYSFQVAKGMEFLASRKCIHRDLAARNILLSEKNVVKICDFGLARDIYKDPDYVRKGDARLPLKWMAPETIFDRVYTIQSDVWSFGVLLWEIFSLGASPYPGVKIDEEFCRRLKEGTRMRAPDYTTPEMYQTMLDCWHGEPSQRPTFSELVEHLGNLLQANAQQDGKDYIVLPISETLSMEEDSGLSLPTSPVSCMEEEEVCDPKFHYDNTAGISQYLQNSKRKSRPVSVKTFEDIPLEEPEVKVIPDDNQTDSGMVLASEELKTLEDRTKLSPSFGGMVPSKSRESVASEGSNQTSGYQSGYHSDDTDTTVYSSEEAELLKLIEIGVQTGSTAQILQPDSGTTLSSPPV

| SMILES | pIC50 [1] | inhibition [2] | other results |
| --- | --- | --- | --- |
| Cc1cc(=O)oc2cc(OCC(=O)NN3C(=O)C=CC3=O)ccc12 | 5.68 | inactive |  |
| Cc1cc(=O)oc2cc(OCC(=O)Nn3c(=O)[nH]c4ccccc4c3=O)ccc12 | 5.78 | inactive | pIC50 [3]: 6.18 |
| Cc1cc(=O)oc2cc(OCC(=O)NNC(=O)CN3CCOCC3)ccc12 | 4.43 | inactive |  |
| Cc1ccc(/C=N/NC(=O)COc2ccc3c(C)cc(=O)oc3c2)o1 | 5.50 | inactive |  |
| CN1CCN(S(=O)(=O)c2ccc3oc(=O)c(Br)cc3c2)CC1 | 4.50 | inactive |  |
| Cc1cc(=O)oc2cc(OCC(=O)NNC(=O)CN3CCN(C)CC3)ccc12 | 5.18 | inactive |  |
| Cc1cc(=O)oc2cc(OCC(=O)NNC(=O)c3ccccc3)ccc12 | 5.10 | inactive |  |
| Cc1cc(=O)oc2cc(OCC(=O)NN3C(=O)c4ccccc4C3=O)ccc12 | 4.83 | inactive |  |
| O=c1oc2ccc(S(=O)(=O)N3CCOCC3)cc2cc1Br | 4.88 | inactive |  |
| O=c1oc2ccc(S(=O)(=O)N3CCCCC3)cc2cc1Br | 5.68 | inactive |  |
| Cc1cc(=O)oc2ccc(NC(=O)c3ccccc3)cc12 | 5.34 | inactive |  |
| COc1cc(OC)c(CNS(=O)(=O)c2ccc3oc(=O)c(Br)cc3c2)c(OC)c1 | 5.24 | inactive |  |
| Cc1cc(=O)oc2cc(OCC(=O)NN(C(=O)c3ccncc3)C(=O)c3ccncc3)ccc12 | 5.06 | inactive |  |
| Cc1cc(=O)oc2cc(OCC(=O)N/N=C/c3ccc([N+](=O)[O-])cc3)ccc12 | 5.25 | inactive |  |
| Cc1cc(=O)oc2cc(OCC(=O)NNCc3ccccc3)ccc12 | 5.91 | inactive | Activity [4]: 1.92%; Activity [5]: Active; Activity [6]: Active; Activity [7]: 17.78%; Activity [8]: 8.015 ng/mL; Activity [9]: 6.72%; pIC50 [3]: 6.44 |
| CN[C@@H]1C[C@H]2O[C@@](C)([C@@H]1OC)n1c3ccccc3c3c4c(c5c6ccccc6n2c5c31)C(=O)NC4 [STAUROSPORINE] |  |  | Activity [4]: 2.33%; Activity [7]: 11.27%; Activity [8]: 8.41 ng/mL; Activity [9]: 8.16% |
| Cc1cc(=O)oc2cc(OCC(=O)N/N=C/c3ccc(N(C)C)cc3)ccc12 | 5.26 | inactive |  |
| O=c1oc2ccc(S(=O)(=O)NCc3ccc4c(c3)OCO4)cc2cc1Br | 5.11 | inactive |  |
| Cc1cc(=O)oc2ccc(N3C(=O)c4ccccc4C3=O)cc12 | 5.38 | inactive |  |
| O=c1oc2ccc(S(=O)(=O)Nc3nc4ccccc4[nH]3)cc2cc1Br | 5.44 | inactive |  |
| Cc1cc(=O)oc2cc(OCC(=O)N/N=C/c3ccc(F)cc3)ccc12 | 5.01 | inactive |  |
